Experimental data: patent publication US9920069B2, “Compounds for treatment of fluoroquinolone-resistant bacteria” (The Board of Trustees of the University of Illinois, priority 2014, dated 2018)
Read-outs that look alike come from different tables or passages of the source.

Columns and labels:
[1] = tested on: MRSA clinical isolate SAU.489; assay: microbe, parasite or virus in culture; format: cell-based, S. aureus; settings: Staphylococcus aureus, read-out: MIC
Method: (§1) Susceptibility testing was performed in triplicate using the microdilution broth method as outlined by the Clinical and Laboratory Standards Institute CLSI^52. MH broth was used.

[2] = tested on: MRSA clinical isolate SAU.494; assay: microbe, parasite or virus in culture; format: cell-based, S. aureus; settings: Staphylococcus aureus, read-out: MIC
Method: as §1

[3] = tested on: MRSA clinical isolate SAU.492; assay: microbe, parasite or virus in culture; format: cell-based, S. aureus; settings: Staphylococcus aureus, read-out: MIC
Method: as §1

[4] = tested on: MRSA clinical isolate SAU.496; assay: microbe, parasite or virus in culture; format: cell-based, S. aureus; settings: Staphylococcus aureus, read-out: MIC
Method: as §1

[5] = tested on: MRSA clinical isolate SAU.493; assay: microbe, parasite or virus in culture; format: cell-based, S. aureus; settings: Staphylococcus aureus, read-out: MIC
Method: as §1

[6] = tested on: MRSA clinical isolate SAU.491; assay: microbe, parasite or virus in culture; format: cell-based, S. aureus; settings: Staphylococcus aureus, read-out: MIC
Method: as §1

[7] = tested on: MRSA clinical isolate SAU.710; assay: microbe, parasite or virus in culture; format: cell-based, S. aureus; settings: Staphylococcus aureus, read-out: MIC
Method: as §1

[8] = tested on: MRSA clinical isolate SAU.495; assay: microbe, parasite or virus in culture; format: cell-based, S. aureus; settings: Staphylococcus aureus, read-out: MIC
Method: as §1

[9] = tested on: MRSA clinical isolate SAU.709; assay: microbe, parasite or virus in culture; format: cell-based, S. aureus; settings: Staphylococcus aureus, read-out: MIC
Method: as §1

[10] = tested on: MRSA clinical isolate SAU.3021; assay: MIC, microdilution broth; format: cell-based, S. aureus
Method: as §1

[11] = tested on: MRSA clinical isolate SAU.2996; assay: MIC, microdilution broth; format: cell-based, S. aureus
Method: as §1

[12] = tested on: MRSA clinical isolate SAU.419; assay: MIC, microdilution broth; format: cell-based, S. aureus
Method: as §1

[13] = tested on: MRSA clinical isolate SAU.42; assay: MIC, microdilution broth; format: cell-based, S. aureus; settings: Staphylococcus aureus
Method: as §1

[14] = tested on: MRSA clinical isolate SAU.3026; assay: MIC, microdilution broth; format: cell-based, S. aureus
Method: as §1

[15] = tested on: MRSA clinical isolate SAU.555; assay: MIC, microdilution broth; format: cell-based, S. aureus; settings: Staphylococcus aureus
Method: as §1

[16] = tested on: MRSA clinical isolate SAU.1118; assay: MIC, microdilution broth; format: cell-based, S. aureus; settings: Staphylococcus aureus
Method: as §1

[17] = tested on: MRSA clinical isolate SAU.447; assay: MIC, microdilution broth; format: cell-based, S. aureus; settings: Staphylococcus aureus
Method: as §1

[18] = tested on: MRSA clinical isolate SAU.846; assay: MIC, microdilution broth; format: cell-based, S. aureus
Method: as §1

[19] = tested on: MRSA clinical isolate SAU.669; assay: MIC, microdilution broth; format: cell-based, S. aureus; settings: Staphylococcus aureus
Method: as §1

[20] = tested on: MRSA clinical isolate SAU.446; assay: MIC, microdilution broth; format: cell-based, S. aureus; settings: Staphylococcus aureus
Method: as §1

[21] = tested on: MRSA clinical isolate SAU.3025; assay: MIC, microdilution broth; format: cell-based, S. aureus; settings: Staphylococcus aureus
Method: as §1

[22] = tested on: MRSA clinical isolate SAU.3024; assay: MIC, microdilution broth; format: cell-based, S. aureus; settings: Staphylococcus aureus
Method: as §1

[23] = tested on: MRSA clinical isolate SAU.3017
Method: as §1

[24] = tested on: MRSA clinical isolate SAU.708; assay: microbe, parasite or virus in culture; format: cell-based, S. aureus; settings: Staphylococcus aureus, read-out: MIC
Method: as §1

MRSA clinical isolates = assay: Panel of MRSA clinical isolates (FIG. 2A); format: cell-based, S. aureus; settings: n=21, in words
P. aeruginosa PAO1 = assay: microbe, parasite or virus in culture; format: cell-based; settings: Pseudomonas aeruginosa, gyrA none, parC none
Method: (§2) E. coli MG1655 and the ΔAcrB strain were obtained from Prof. Cari Vanderpool at UIUC.
as §1

E. coli ATCC 25922 = assay: microbe, parasite or virus in culture; format: cell-based; settings: Escherichia coli, ATCC25922, gyrA none, parC none
Method: as §2, §1

A. baumannii ATCC 19606 = assay: microbe, parasite or virus in culture; format: cell-based; settings: Acinetobacter baumannii, ATCC19606, gyrA none, parC none
Method: as §2, §1

physchem [25] = settings: organic solvent or mixture, thermodynamic from solid
physchem [26] = settings: pH 7.4 PBS; three replicates ± SEM
Method: Enough PBS was added to make a 1 mg/mL solution. Compounds were then assessed by LC-MS and compared to a calibration curve to determine the solubility. […] Data shown is from three independent replicates±SEM. […] Between DMSO additions, the vial was vortexed and sonicated.
The compound was vortexed for ˜30 seconds before being placed into a bath sonicator (Cole Parmer, ultrasonic cleaner) for 1 h. […] The tubes were vortexed again for 30 s before being centrifuged at maximum speed (13,000×g) for 10 minutes. The supernatant was then filtered through a 0.22 μm syringe filter (Millipore Millex MP). […] Three independent replicates of each compound were performed. A calibration curve for each compound was generated from 1-400 μM by dissolving the compound in DMSO and making dilutions of the stock in DMSO. […] The concentration of the samples was calculated based on the calibration curves.

[27] = tested on: VRE clinical isolate S206; assay: organism not typed; format: cell-based, E. faecalis
Method: (§3) QRDR mutations were determined as described in the text using primers (primer sequences can be found in Table 7).
as §1

[28] = tested on: VRE clinical isolate S234; assay: organism not typed; format: cell-based, E. faecalis; settings: read-out: MIC
[29] = tested on: VRE clinical isolate S557; assay: organism not typed; format: cell-based, E. faecium; settings: read-out: MIC
Enterococcus ATCC 29212 = assay: organism not typed; format: cell-based, E. faecalis; settings: ATCC 29212, E. faecalis; gyrA WT, parC WT; read-out: MIC
A. baumannii KB304 = assay: MIC, microdilution broth; format: cell-based; settings: Acinetobacter baumannii
Method: as §2, §1

A. baumannii KB349 = assay: MIC, microdilution broth; format: cell-based; settings: Acinetobacter baumannii
Method: as §2, §1

[30] = tested on: VRE clinical isolate C21190; assay: organism not typed; format: cell-based, E. faecium
Method: as §3, §1

[31] = tested on: VRE clinical isolate U464; assay: organism not typed; format: cell-based, E. faecium
Method: as §3, §1

VRE clinical isolate S51 = assay: organism not typed; format: cell-based, E. faecium
Method: as §3, §1

VRE clinical isolate S34 = assay: organism not typed; format: cell-based, E. faecium
Method: as §3, §1

[32] = tested on: VRE clinical isolate C27282; assay: organism not typed; format: cell-based, E. faecium
Method: as §3, §1

VRE clinical isolate U63 = assay: organism not typed; format: cell-based, E. faecium
Method: as §3, §1

[33] = tested on: VRE clinical isolate U503; assay: organism not typed; format: cell-based, E. faecium
Method: as §3, §1

[34] = tested on: VRE clinical isolate S226; assay: organism not typed; format: cell-based, E. faecium
Method: as §3, §1

[35] = tested on: VRE clinical isolate U563; assay: organism not typed; format: cell-based, E. faecium
Method: as §3, §1

[36] = tested on: VRE clinical isolate S235; assay: organism not typed; format: cell-based, E. faecium
Method: as §3, §1

[37] = tested on: VRE clinical isolate U275; assay: organism not typed; format: cell-based, E. faecium
Method: as §3, §1

VRE clinical isolates = assay: Panel of VRE clinical isolates (FIG. 2B); format: cell-based, Enterococcus; settings: n=22, in words
[38] = tested on: VRE clinical isolate C28036; assay: microbe, parasite or virus in culture; format: cell-based, Ent. Spp.; settings: Enterococcus
Method: as §3, §1

PA1586 = assay: MIC, microdilution broth; format: cell-based, P. aeruginosa; settings: Pseudomonas aeruginosa
Method: as §2, §1

[39] = tested on: S. aureus 29213 (WT GyrA and WT ParC); assay: microbe, parasite or virus in culture; format: cell-based; settings: Staphylococcus aureus; WT GyrA and WT ParC; read-out: MIC against S. aureus 29213
Method: as §1

VRE clinical isolate D1 = assay: organism not typed; format: cell-based, E. faecium; settings: read-out: MIC
Enterococcus ATCC 19433 = assay: organism not typed; format: cell-based, E. faecalis; settings: ATCC 19433, E. faecalis; gyrA WT, parC WT; read-out: MIC
[40] = Staphylococcus aureus, MRSA, read-out: MIC

CC1(C)S[C@@H]2[C@H](NC(=O)[C@H](N)c3ccccc3)C(=O)N2[C@H]1C(=O)O [Amp, Ampicillin, reference compound]
> 64 µg/mL: MIC [1] | MIC [2] | MIC [3] | MIC [4] | MIC [5] | MIC [6] | MIC [7] | MIC [8] | MIC [9] | MIC [15] | MIC [16] | MIC [17] | MIC [19] | MIC [20] | MIC [22]
>64 µg/mL: MIC [10] | MIC [11] | MIC [12] | MIC [14] | MIC [18] | MIC [23]
2 µg/mL: MIC [13]
64 µg/mL: MIC [21]

CCCn1c(=O)cc(C)c2cc3c(C)cc(=O)n4c3c(c21)OC4 [DNM-8]
16 µg/mL: MIC [39] | MIC (Enterococcus ATCC 19433)
0.25 µg/mL: MIC [1] | MIC [2] | MIC [4] | MIC [5] | MIC [8] | MIC [9] | MIC [12, 40] | MIC [14, 40]
2 µg/mL: MIC [31] | MIC (VRE clinical isolate S34)
0.5 µg/mL: MIC [6] | MIC [15] | MIC [28] | MIC [29] | MIC (VRE clinical isolate D1)
4 µg/mL: MIC [27] | MIC (VRE clinical isolate U63) | MIC [33] | MIC [35] | MIC [37]
1 µg/mL: MIC [24] | MIC (VRE clinical isolate S51) | MIC [34] | MIC [36] | MIC [38]
11.3 mM: solubility (physchem [25])
0.125 µg/mL: MIC [7] | MIC [10, 40]
sensitive: sensitivity of MRSA clinical isolates (MRSA clinical isolates) | sensitivity of VRE clinical isolates (VRE clinical isolates)
8 µg/mL: MIC (Enterococcus ATCC 29212) | MIC [30] | MIC [32]
68 μM: Solubility in pH 7.4 PBS (physchem [26])
> 32 µg/mL: MIC (P. aeruginosa PAO1) | MIC (E. coli ATCC 25922) | MIC (A. baumannii ATCC 19606) | MIC (A. baumannii KB304) | MIC (A. baumannii KB349) | MIC (PA1586)
